Results: patent US12077503B2, “Substituted cyclic amides and their use as herbicides” (FMC CORPORATION, priority 2015, dated 2024)

Columns and labels:
Type in all cases: in vivo
Kochia (Kochia scoparia) [1] = test: Test A preemergence; settings: Bassia scoparia, pre-emergence, 240 h, 0 to 100 scale where 0 is no effect and 100 is complete control, read-out: Kochia plant response rating
Procedure, shortened: (§1)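 Seeds sprayed preemergence with a directed soil spray, or plants at 2 to 10 cm height and one- to two-leaf stage sprayed postemergence, with test chemicals in a non-phytotoxic solvent mixture containing surfactant, in loam soil–sand blend. Injury rated visually against untreated controls after about 10 d in greenhouse, 0 (no effect) to 100 (complete control).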

[2] = tested on: barnyardgrass (Echinochloa crus-galli); test: Test A preemergence; settings: Echinochloa crus-galli, pre-emergence, 240 h, 0 to 100 scale where 0 is no effect and 100 is complete control, read-out: Barnyardgrass plant response rating
Procedure, shortened: as §1

[3] = tested on: giant foxtail (Setaria faberii); test: Test A preemergence; settings: Setaria faberi, pre-emergence, 240 h, 0 to 100 scale where 0 is no effect and 100 is complete control, read-out: Foxtail, Giant plant response rating
Procedure, shortened: as §1

[4] = tested on: pigweed (Amaranthus retroflexus); test: Test A preemergence; settings: Amaranthus retroflexus, pre-emergence, 240 h, 0 to 100 scale where 0 is no effect and 100 is complete control, read-out: Pigweed plant response rating
[5] = tested on: ragweed (common ragweed, Ambrosia elatior); test: Test A preemergence; settings: Ambrosia artemisiifolia, pre-emergence, 240 h, 0 to 100 scale where 0 is no effect and 100 is complete control, read-out: Ragweed plant response rating
Procedure, shortened: as §1

[6] = tested on: ryegrass, Italian (Italian ryegrass, Lolium multiflorum); test: Test A preemergence; settings: Lolium multiflorum, pre-emergence, 240 h, 0 to 100 scale where 0 is no effect and 100 is complete control, read-out: Ryegrass, Italian plant response rating
Procedure, shortened: as §1

[7] = tested on: Galium (catchweed bedstraw, Galium aparine); test: Test A postemergence; settings: Galium, post-emergence, 240 h
Procedure, shortened: as §1

Kochia (Kochia scoparia) [8] = test: Test A postemergence; settings: Bassia scoparia, post-emergence, 240 h
Procedure, shortened: as §1

[9] = tested on: barnyardgrass (Echinochloa crus-galli); test: Test A postemergence; settings: Echinochloa crus-galli, post-emergence, 240 h
Procedure, shortened: as §1

[10] = tested on: blackgrass (Alopecurus myosuroides); test: Test A postemergence; settings: Alopecurus myosuroides, post-emergence, 240 h
Procedure, shortened: as §1

corn (Zea mays) = test: Test A postemergence; settings: Zea mays, post-emergence, 240 h
Procedure, shortened: as §1

[11] = tested on: giant foxtail (Setaria faberii); test: Test A postemergence; settings: Setaria faberi, post-emergence, 240 h
Procedure, shortened: as §1

[12] = tested on: pigweed (Amaranthus retroflexus); test: Test A postemergence; settings: Amaranthus retroflexus, post-emergence, 240 h
Procedure, shortened: as §1

[13] = tested on: ragweed (common ragweed, Ambrosia elatior); test: Test A postemergence; settings: Ambrosia artemisiifolia, post-emergence, 240 h
Procedure, shortened: as §1

[14] = tested on: ryegrass, Italian (Italian ryegrass, Lolium multiflorum); test: Test A postemergence; settings: Lolium multiflorum, post-emergence, 240 h
Procedure, shortened: as §1

[15] = tested on: wheat (Triticum aestivum); test: Test A postemergence; settings: Triticum aestivum, post-emergence, 240 h
Procedure, shortened: as §1

[16] = tested on: barnyardgrass (Echinochloa crus-galli); test: Test B flooded paddy test; settings: Echinochloa crus-galli, 250 g ai/ha, Flood; 0 to 100 scale where 0 is no effect and 100 is complete control; read-out: Barnyardgrass plant response rating
Procedure, shortened: (§2)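 2-leaf plants; pots flooded 3 cm over soil; cpd added to paddy water; depth held; greenhouse 13–15 d; visual rating vs controls, 0 = no effect, 100 = complete control.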

[17] = tested on: ducksalad (Heteranthera limosa); test: Test B flooded paddy test; settings: Heteranthera limosa, 250 g ai/ha, Flood; 0 to 100 scale where 0 is no effect and 100 is complete control; read-out: Ducksalad plant response rating
Procedure, shortened: as §2

rice (Oryra sativa) = test: Test B flooded paddy test; settings: Oryza sativa, 250 g ai/ha, Flood; 0 to 100 scale where 0 is no effect and 100 is complete control; read-out: Rice plant response rating
Procedure, shortened: as §2

[18] = tested on: sedge, umbrella (small-flower umbrella sedge, Cyperus difformis); test: Test B flooded paddy test; settings: Cyperus difformis, 250 g ai/ha, Flood; 0 to 100 scale where 0 is no effect and 100 is complete control; read-out: Sedge, Umbrella plant response rating
Procedure, shortened: as §2

[19] = 125 g ai/ha, preemergence, approx. 10 d

`CN1C[C@H](c2csc3c2CCCC3)[C@@H](C(=O)Nc2ccccc2S(C)(=O)=O)C1=O` [Compound 1080] was tested, and the pest or weed control at 31 g/ha (Kochia (Kochia scoparia) [1]; 31 g ai/ha, Preemergence) was 0%, the pest or weed control at 125 g/ha (Kochia (Kochia scoparia) [1]; [19]) was 10% and the pest or weed control at 31 g/ha ([2]; 31 g ai/ha, Preemergence) was 0%. The pest or weed control at 125 g/ha [2, 19] was 0%, the pest or weed control at 31 g/ha ([3]; 31 g ai/ha, Preemergence) was 0% and the pest or weed control at 125 g/ha [3, 19] was 0%. For the same molecule, the pest or weed control at 31 g/ha ([4]; 31 g ai/ha, Preemergence) was 0%, the pest or weed control at 125 g/ha [4, 19] was 0% and the pest or weed control at 31 g/ha ([5]; 31 g ai/ha, Preemergence) was 0%. It also gave a pest or weed control at 125 g/ha [5, 19] of 0%, a pest or weed control at 31 g/ha ([6]; 31 g ai/ha, Preemergence) of 0% and a pest or weed control at 125 g/ha [6, 19] of 0%. For the same molecule, the pest or weed control at 125 g/ha ([7]; 125 g ai/ha, postemergence, visual injury on 0 to 100 scale (0 no effect, 100 complete control), approx. 10 d, read-out: Galium plant response rating) was 0%, the pest or weed control at 31 g/ha ([7]; Postemergence, 31 g ai/ha, visual injury after approx. 10 d, 0 to 100 scale, 0 no effect, 100 complete control, read-out: Plant response rating, Galium) was 0% and the pest or weed control at 125 g/ha (Kochia (Kochia scoparia) [8]; 125 g ai/ha, postemergence, visual injury on 0 to 100 scale (0 no effect, 100 complete control), approx. 10 d, read-out: Kochia plant response rating) was 0%. The pest or weed control at 31 g/ha (Kochia (Kochia scoparia) [8]; Postemergence, 31 g ai/ha, visual injury after approx. 10 d, 0 to 100 scale, 0 no effect, 100 complete control, read-out: Plant response rating, Kochia) was 0%, the pest or weed control at 125 g/ha ([9]; 125 g ai/ha, postemergence, visual injury on 0 to 100 scale (0 no effect, 100 complete control), approx. 10 d, read-out: Barnyardgrass plant response rating) was 50% and the pest or weed control at 31 g/ha ([9]; Postemergence, 31 g ai/ha, visual injury after approx. 10 d, 0 to 100 scale, 0 no effect, 100 complete control, read-out: Plant response rating, Barnyardgrass) was 0%. It also gave a pest or weed control at 125 g/ha ([10]; 125 g ai/ha, postemergence, visual injury on 0 to 100 scale (0 no effect, 100 complete control), approx. 10 d, read-out: Blackgrass plant response rating) of 0%, a pest or weed control at 31 g/ha ([10]; Postemergence, 31 g ai/ha, visual injury after approx. 10 d, 0 to 100 scale, 0 no effect, 100 complete control, read-out: Plant response rating, Blackgrass) of 0% and a plant injury at 125 g/ha (corn (Zea mays); 125 g ai/ha, postemergence, visual injury on 0 to 100 scale (0 no effect, 100 complete control), approx. 10 d, read-out: Corn plant response rating) of 0%. For the same molecule, the Corn plant response rating (crop injury, 0 = no effect, 100 = complete kill) at 31 g/ha (corn (Zea mays); Postemergence, 31 g ai/ha, visual injury after approx. 10 d, 0 to 100 scale, 0 no effect, 100 complete control) was 0%, the pest or weed control at 125 g/ha ([11]; 125 g ai/ha, postemergence, visual injury on 0 to 100 scale (0 no effect, 100 complete control), approx. 10 d, read-out: Foxtail, Giant plant response rating) was 0% and the pest or weed control at 31 g/ha ([11]; Postemergence, 31 g ai/ha, visual injury after approx. 10 d, 0 to 100 scale, 0 no effect, 100 complete control, read-out: Plant response rating, Foxtail, Giant) was 0%. It also gave a pest or weed control at 125 g/ha ([12]; 125 g ai/ha, postemergence, visual injury on 0 to 100 scale (0 no effect, 100 complete control), approx. 10 d, read-out: Pigweed plant response rating) of 0%, a pest or weed control at 31 g/ha ([12]; Postemergence, 31 g ai/ha, visual injury after approx. 10 d, 0 to 100 scale, 0 no effect, 100 complete control, read-out: Plant response rating, Pigweed) of 0% and a pest or weed control at 125 g/ha ([13]; 125 g ai/ha, postemergence, visual injury on 0 to 100 scale (0 no effect, 100 complete control), approx. 10 d, read-out: Ragweed plant response rating) of 0%. The pest or weed control at 31 g/ha ([13]; Postemergence, 31 g ai/ha, visual injury after approx. 10 d, 0 to 100 scale, 0 no effect, 100 complete control, read-out: Plant response rating, Ragweed) was 0%, the pest or weed control at 125 g/ha ([14]; 125 g ai/ha, postemergence, visual injury on 0 to 100 scale (0 no effect, 100 complete control), approx. 10 d, read-out: Ryegrass, Italian plant response rating) was 0% and the pest or weed control at 31 g/ha ([14]; Postemergence, 31 g ai/ha, visual injury after approx. 10 d, 0 to 100 scale, 0 no effect, 100 complete control, read-out: Plant response rating, Ryegrass, Italian) was 0%. The plant injury at 125 g/ha ([15]; 125 g ai/ha, postemergence, visual injury on 0 to 100 scale (0 no effect, 100 complete control), approx. 10 d, read-out: Wheat plant response rating) was 0%, the plant injury at 31 g/ha ([15]; Postemergence, 31 g ai/ha, visual injury after approx. 10 d, 0 to 100 scale, 0 no effect, 100 complete control, read-out: Plant response rating, Wheat) was 0% and the pest or weed control at 250 g/ha [16] was 50%. For the same molecule, the pest or weed control at 250 g/ha [17] was 40%, the pest or weed control at 250 g/ha (rice (Oryra sativa)) was 15% and the pest or weed control at 250 g/ha [18] was 0%.
